Source: patent publication US10626112B2, “Heterocyclic sulfonamide derivative and medicine comprising same” (EA PHARMA CO., LTD., priority 2014, dated 2020)
pIC50: −log10 of the molar value.

Biological target: human TRPA1 (Homo sapiens (Human), UniProt O75762)
Experiment: Measurement of TRPA1 antagonist activity (2): as (1), different lot of human TRPA1 expression plasmid
Assay type: cell-based
Settings: 293T cells transfected with human TRPA1, allylisothiocyanate 20 μM stimulation, calcium fluorescence, read-out: hTRPA1 IC50
In short: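 HEK293T cells transiently transfected with human TRPA1 plasmid (different lot), loaded with Calcium4 dye in HBSS/20 mM HEPES pH 7.2. Test compound preincubated 10 min, then allylisothiocyanate added at 20 μM final and fluorescence change read for 5 min. IC50 from sigmoid fit of inhibition relative to AITC-alone and buffer controls.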

Chain of human TRPA1 (O75762 whole entry): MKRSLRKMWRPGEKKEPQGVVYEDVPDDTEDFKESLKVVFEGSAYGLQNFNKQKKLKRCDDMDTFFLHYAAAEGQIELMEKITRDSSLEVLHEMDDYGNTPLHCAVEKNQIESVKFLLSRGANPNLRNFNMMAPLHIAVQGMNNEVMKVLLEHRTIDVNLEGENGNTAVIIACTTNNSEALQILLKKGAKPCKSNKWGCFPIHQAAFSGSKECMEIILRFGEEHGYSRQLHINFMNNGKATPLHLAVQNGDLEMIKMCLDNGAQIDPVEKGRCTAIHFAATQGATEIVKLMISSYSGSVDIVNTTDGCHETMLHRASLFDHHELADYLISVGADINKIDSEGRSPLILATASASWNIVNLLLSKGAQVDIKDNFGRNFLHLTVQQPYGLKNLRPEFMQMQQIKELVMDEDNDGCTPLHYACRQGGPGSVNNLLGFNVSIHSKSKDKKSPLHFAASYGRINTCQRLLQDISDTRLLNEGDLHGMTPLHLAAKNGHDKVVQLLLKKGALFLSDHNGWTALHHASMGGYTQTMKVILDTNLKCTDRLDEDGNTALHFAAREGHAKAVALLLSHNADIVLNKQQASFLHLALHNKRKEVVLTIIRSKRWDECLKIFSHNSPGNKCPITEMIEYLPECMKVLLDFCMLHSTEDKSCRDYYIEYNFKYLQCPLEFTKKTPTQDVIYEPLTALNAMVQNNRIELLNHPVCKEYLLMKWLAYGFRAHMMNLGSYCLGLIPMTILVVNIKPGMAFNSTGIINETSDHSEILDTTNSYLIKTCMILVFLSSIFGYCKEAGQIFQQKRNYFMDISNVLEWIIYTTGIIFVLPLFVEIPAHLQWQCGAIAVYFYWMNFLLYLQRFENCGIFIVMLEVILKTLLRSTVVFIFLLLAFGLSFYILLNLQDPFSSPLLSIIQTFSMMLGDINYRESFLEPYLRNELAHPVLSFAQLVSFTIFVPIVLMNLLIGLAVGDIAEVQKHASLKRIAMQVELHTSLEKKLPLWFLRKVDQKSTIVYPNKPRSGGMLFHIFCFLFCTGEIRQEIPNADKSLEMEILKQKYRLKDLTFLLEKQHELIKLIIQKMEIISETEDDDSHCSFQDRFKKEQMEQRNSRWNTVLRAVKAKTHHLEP

SMILES	pIC50
O=C(NCc1ccnc(-c2cnc(C(F)(F)F)nc2)c1)[C@@H]1CCCN1S(=O)(=O)c1cc2cc(F)ccc2o1 [Example 402, (2S)-1-(5-fluorobenzofuran-2-yl)sulfonyl-N-[[2-[2-(trifluoromethyl)pyrimidin-5-yl]-4-pyridyl]methyl]pyrrolidine-2-carboxamide]	8.46
O=C(NCc1cc(-c2cnc(C(F)(F)F)cn2)ccn1)[C@@H]1CCCN1S(=O)(=O)c1cc2cc(F)ccc2o1 [Example 405, (2S)-1-(5-fluorobenzofuran-2-yl)sulfonyl-N-[[4-[5-(trifluoromethyl)pyrazin-2-yl]-2-pyridyl]methyl]pyrrolidine-2-carboxamide]	8.46
O=C(NCc1cc(-c2ccc(OC(F)(F)F)cc2)ncn1)[C@@H]1CCCN1S(=O)(=O)c1cc2cc(F)ccc2o1 [Example 406, (2S)-1-(5-fluorobenzofuran-2-yl)sulfonyl-N-[[6-[4-(trifluoromethoxy)phenyl]-pyrimidin-4-yl]methyl]pyrrolidine-2-carboxamide]	8.57
O=C(NCc1cc(-c2ncc(C(F)(F)F)cn2)ccn1)[C@@H]1CCCN1S(=O)(=O)c1cc2cc(F)ccc2o1 [Example 407, (2S)-1(5-fluorobenzofuran-2-yl)sulfonyl-N-[[4-[5-(trifluoromethyl)pyrimidin-2-yl]-2-pyridyl]methyl]pyrrolidine-2-carboxamide]	8.15
O=C(NCc1cc(-c2ccc(C(F)(F)F)nc2)ncn1)[C@@H]1CCN1S(=O)(=O)c1cc2ccccc2o1 [Example 408, (2S)-1-(benzofuran-2-ylsulfonyl)-N-[[6-[6-(trifluonomethyl)-3-pyridyl]pyrimidin-4-yl]methyl]azetidine-2-carboxamide]	7.80
O=C(NCc1cc(-c2cnc(C(F)(F)F)nc2)ncn1)[C@@H]1CCN1S(=O)(=O)c1cc2ccccc2o1 [Example 409, (2S)-1-(benzofuran-2-ylsulfonyl)-N-[[6-[2-(trifluoromethyl)pyrimidin-5-yl]pyrimidin-4-yl]methyl]azetidine-2-carboxamide]	7.54
CN(C)c1nc(CNC(=O)[C@@H]2CCN2S(=O)(=O)c2cc3ccccc3o2)cc(-c2ccc(C(F)(F)F)nc2)n1 [Example 410, (2S)-1-(benzofuran-2-ylsulfonyl)-N-[[2-(dimethylamino)-6-[6-(trifluoromethyl)-3-pyridyl]pyrimidin-4-yl]methyl]azetidine-2-carboxamide]	7.42
CC(C)N(CC(=O)NCc1cc(-c2ccc(C(F)(F)F)cc2O)ncn1)S(=O)(=O)c1cc2cc(F)ccc2o1 [Example 413, 2-[(5-fluorobenzofuran-2-yl)sulfonyl-isopropyl-amino]-N-[[6-[2-hydroxy-4-(trifluoromethyl)phenyl]pyrimidin-4-yl]methyl]acetamide]	7.92
C[C@H](NS(=O)(=O)c1cc2cnccc2o1)C(=O)NCc1cc(-c2ccc(C(F)(F)F)cc2O)ncn1 [Example 414, (2S)-2-(furo[3,2-c]pyridin-2-ylsulfonylamino)-N-[[6-[2-hydroxy-4-(trifluoromethyl)phenyl]pyrimidin-4-yl]methyl]propanamide]	7.47
CCN([C@@H](C)C(=O)NCc1cc(-c2ccc(C(F)(F)F)cn2)ccn1)S(=O)(=O)c1cc2cc(F)ccc2o1 [Example 416, (2S)-2-[ethyl-(5-fluorobenzofuran-2-yl)sulfonyl-amino]-N-[[4-[5-(trifluoromethyl)-2-pyridyl]-2-pyridyl]methyl]propanamide]	8.38
C=CCN([C@@H](C)C(=O)NCc1cc(-c2ccc(C(F)(F)F)cn2)ccn1)S(=O)(=O)c1cc2cc(F)ccc2o1 [Example 417, (2S)-2-[allyl-(5-fluorobenzofuran-2-yl)sulfonyl-amino]-N-[[4-[5-(trifluoromethyl)-2-pyridyl]-2-pyridyl]methyl]propanamide]	7.85
C#CCN([C@@H](C)C(=O)NCc1cc(-c2ccc(C(F)(F)F)cn2)ccn1)S(=O)(=O)c1cc2cc(F)ccc2o1 [Example 418, (2S)-2-[(5-fluorobenzofuran-2-yl)sulfonyl-prop-2-ynylamino]-N-[[4-[5-(trifluoromethyl)-2-pyridyl]-2-pyridyl]methyl]propanamide]	7.96
CCN(CC(=O)NCc1cc(-c2ccc(C(F)(F)F)cc2)ncn1)S(=O)(=O)c1cc2cc(F)ccc2o1 [Example 419, 2-[ethyl-(5-fluorobenzofuran-2-yl)sulfonyl-amino]-N-[[6-[4-(trifluoromethyl)phenyl]pyrimidin-4-yl]methyl]acetamide]	8.39
CC(C)N(CC(=O)NCc1cc(-c2ccc(C(F)(F)F)cc2)ncn1)S(=O)(=O)c1cc2cc(F)ccc2o1 [Example 420, 2-[(5-fluorobenzofuran-2-yl)sulfonyl-isopropyl-amino]-N-[[6-[4-(trifluoromethyl)phenyl]pyrimidin-4-yl]methyl]acetamide]	8.00
C[C@@H](C(=O)NCc1cc(-c2ccc(C(F)(F)F)cc2)ncn1)N(C)S(=O)(=O)c1cc2cc(F)ccc2o1 [Example 421, (2S)-2-[(5-fluorobenzofuran-2-yl)sulfonyl-methyl-amino]-N-[[6-[4-(trifluoromethyl)phenyl]pyrimidin-4-yl]methyl]propanamide]	8.54
CCN([C@@H](C)C(=O)NCc1cc(-c2ccc(C(F)(F)F)cc2)ncn1)S(=O)(=O)c1cc2cc(F)ccc2o1 [Example 422, (2S)-2-[ethyl-(5-fluorobenzofuran-2-yl)sulfonyl-amino]-N-[[6-[4-(trifluoromethyl)phenyl]pyrimidin-4-yl]methyl]propanamide]	8.52
O=C(CN(CC1CCNCC1)S(=O)(=O)c1cc2cc(F)ccc2o1)NCc1cc(-c2ccc(C(F)(F)F)cn2)ccn1 [Example 423, 2-[(5-fluorobenzofuran-2-yl)sulfonyl-(4-piperidylmethyl)amino]-N-[[4-[5-(trifluoromethyl)-2-pyridyl]-2-pyridyl]methyl]acetamide]	7.48
O=C(CN(CC1CCNCC1)S(=O)(=O)c1cc2cc(F)ccc2o1)NCc1cc(-c2ccc(C(F)(F)F)cc2)ncn1 [Example 424, 2-[(5-fluorobenzofuran-2-yl)sulfonyl-(4-piperidylmethyl)amino]-N-[[6-[4-(trifluoromethyl)phenyl]pyrimidin-4-yl]methyl]acetamide]	7.68
C[C@@H](C(=O)NCc1cc(-c2ccc(C(F)(F)F)cn2)ccn1)N(C)S(=O)(=O)c1cc2cc(F)ccc2o1 [Example 426, (2S)-2-[(5-fluorobenzofuran-2-yl)sulfonyl-methyl-amino]-N-[[4-[5-(trifluoromethyl)-2-pyridyl]-2-pyridyl]methyl]propanamide]	8.11

Other lines, results leading:

pIC50	SMILES
8.17	CN(C)c1nc(CNC(=O)[C@@H]2CCCN2S(=O)(=O)c2cc3cc(F)ccc3o2)cc(-c2ccc(C(F)(F)F)cc2O)n1 [Example 397, (2S)-N-[[2-(dimethylamino)-6-[2-hydroxy-4-(trifluoromethyl)phenyl]-pyrimidin-4-yl]methyl]-1-(5-fluorobenzofuran-2-yl)sulfonyl-pyrrolidine-2-carboxamide]
7.68	CN(C)c1nc(CNC(=O)[C@@H]2CCN2S(=O)(=O)c2cc3cc(F)ccc3o2)cc(-c2ccc(C(F)(F)F)cc2O)n1 [Example 398, (2S)-N-[[2-(dimethylamino)-6-[2-hydroxy-4-(trifluoromethyl)phenyl]-pyrimidin-4-yl]methyl]-1-(5-fluorobenzofuran-2-yl)sulfonyl-azetidine-2-carboxamide]
8.60	O=C(NCc1cccc(-c2cnc(C(F)(F)F)cn2)c1)[C@@H]1CCCN1S(=O)(=O)c1cc2cc(F)ccc2o1 [Example 399, (2S)-1-(5-fluorobenzofuran-2-yl)sulfonyl-N-[[3-[5-(trifluoromethyl)pyrazin-2-yl]phenyl]methyl]pyrrolidine-2-carboxamide]
8.28	O=C(NCc1cc(-c2ccc(C(F)(F)F)cn2)ncn1)[C@@H]1CCCN1S(=O)(=O)c1cc2cc(F)ccc2o1 [Example 400, (2S)-1-(5-fluorobenzofuran-2-yl)sulfonyl-N-[[6-[5-(trifluoromethyl)-2-pyridyl]pyrimidin-4-yl]methyl]pyrrolidine-2-carboxamide]
7.92	O=C(NCc1cc(-c2ccc(C(F)(F)F)cn2)ncn1)[C@@H]1CCN1S(=O)(=O)c1cc2cc(F)ccc2o1 [Example 401, (2S)-1-(5-fluorobenzofuran-2-yl)sulfonyl-N-[[6-[5-(trifluoromethyl)-2-pyridyl]pyrimidin-4-yl]methyl]azetidine-2-carboxamide]
7.89	O=C(NCc1ccnc(-c2cnc(C(F)(F)F)nc2)c1)[C@@H]1CCN1S(=O)(=O)c1cc2cc(F)ccc2o1 [Example 403, (2S)-1-(5-fluorobenzofuran-2-yl)sulfonyl-N-[[2-[2-(trifluoromethyl)pyrimidin-5-yl]-4-pyridyl]methyl]azetidine-2-carboxamide]
8.01	O=C(NCc1ccc(O)c(-c2ccc(C(F)(F)F)cn2)c1)[C@@H]1CCN1S(=O)(=O)c1cc2cc(F)ccc2o1 [Example 404, (2S)-1-(5-fluorobenzofuran-2-yl)sulfonyl-N-[[4-hydroxy-3-[5-(trifluoromethyl)-2-pyridyl]phenyl]methyl]azetidine-2-carboxamide]
7.60	O=C(NCc1ccnc(-c2ccc(C(F)(F)F)cc2O)c1)[C@@H]1CCN1S(=O)(=O)c1cc2ccccc2o1 [Example 411, (2S)-1-(benzofuran-2-ylsulfonyl)-N-[[2-[2-hydroxy-4-(trifluoromethyl)phenyl]-4-pyridyl]methyl]azetidine-2-carboxamide]
8.57	O=C(NCc1cc(-c2ccc(C(F)(F)F)cc2O)ncn1)[C@@H]1CCN1S(=O)(=O)c1cc2cc(F)ccc2o1 [Example 412, (2S)-1-(5-fluorobenzofuran-2-yl)sulfonyl-N-[[6-[2-hydroxy-4-(trifluoromethyl)phenyl]pyrimidin-4-yl]methyl]azetidine-2-carboxamide]
